SMILES strings stand for the structures. Converted amounts (≈) assume the structure as drawn. The source made the active and inactive calls. The calls are words filed in the database; no cut-off is given here.

Assay [1] has as its system KB. Briefly: Cytotoxicity against human KB cells at 25 ug/ml after 48 hrs. It counts as functional, cell-based.
Assay [2] deals with P388. Kind of assay: Cytotoxicity against mouse P388 cells after 48 hrs. The format is functional. The following applies: P388, 48 h, read-out: ED50 (the source's name).
Assay [3] has as its system LX-1. Kind of assay: In vivo antitumor activity against human LX1 cells at 1200 mg/kg administered on day 1, 5 and 9 relative to control. It counts as functional.
Assay [4] relates to LX-1. Briefly: In vivo antitumor activity against human LX1 cells at 600 mg/kg administered on day 1, 5 and 9 relative to control. The format is functional.
The subject of assay [5] is LX-1. Briefly: In vivo antitumor activity against human LX1 cells at 300 mg/kg administered on day 1, 5 and 9 relative to control. It counts as functional.
Assay [6] deals with MX1. Kind of assay: In vivo antitumor activity against human MX1 cells at 1200 mg/kg administered on day 1, 5 and 9 relative to control. It counts as functional.
For assay [7], the system named is MX1. Kind of assay: In vivo antitumor activity against human MX1 cells at 600 mg/kg administered on day 1, 5 and 9 relative to control. The format is functional.
Assay [8] concerns MX1. Kind of assay: In vivo antitumor activity against human MX1 cells at 300 mg/kg relative to control on day 1, 5 and 9 relative to control. The format is functional.
Assay [9] has as its system MX1. Briefly: In vivo antitumor activity against human MX1 cells at 150 mg/kg administered on day 1, 5 and 9 relative to control. The format is functional.
Assay [10] has as its system P388. Briefly: In vivo antitumor activity against mouse P388 cells at 320 mg/kg for 1 to 9 days relative to control. The format is functional.
Assay [11] deals with P388. Briefly: In vivo antitumor activity against mouse P388 cells at 160 mg/kg for 1 to 9 days relative to control. It counts as functional.
For assay [12], the system named is P388. Briefly: In vivo antitumor activity against mouse P388 cells at 80 mg/kg for 1 to 9 days relative to control. The format is functional.
Assay [13] relates to P388. Briefly: In vivo antitumor activity against mouse P388 cells at 40 mg/kg for 1 to 9 days relative to control. The format is functional.
The subject of assay [14] is P388. Briefly: In vivo antitumor activity against mouse P388 cells at 100 mg/kg for 1 to 10 days relative to control. It counts as functional.
The test system of assay [15] is P388. Kind of assay: In vivo antitumor activity against mouse P388 cells at 50 mg/kg for 1 to 10 days relative to control. The format is functional.
Assay [16] relates to P388. Briefly: In vivo antitumor activity against mouse P388 cells at 25 mg/kg for 1 to 10 days relative to control. It counts as functional.
The test system of assay [17] is P388. Briefly: In vivo antitumor activity against mouse P388 cells at 320 mg/kg administered on day 1, 5 and 9 relative to control. The format is functional.
The subject of assay [18] is P388. Kind of assay: In vivo antitumor activity against mouse P388 cells at 160 mg/kg administered on day 1, 5 and 9 relative to control. The format is functional.
Assay [19] deals with P388. Kind of assay: In vivo antitumor activity against mouse P388 cells at 80 mg/kg administered on day 1, 5 and 9 relative to control. It counts as functional.
The subject of assay [20] is P388. Briefly: In vivo antitumor activity against mouse P388 cells at 40 mg/kg administered on day 1, 5 and 9 relative to control. It counts as functional.
Assay [21] relates to KB. Kind of assay: Cytotoxicity against human KB cells after 48 hrs. The following applies: read-out: ED50 (the source's name). The format is functional.
The test system of assay [22] is B16. Kind of assay: In vivo antitumor activity against mouse B16 cells at 200 mg/kg for 1 to 9 days relative to control. The format is functional.
Assay [23] concerns B16. Kind of assay: In vivo antitumor activity against mouse B16 cells at 100 mg/kg for 1 to 9 days relative to control. The format is functional.
The test system of assay [24] is B16. Briefly: In vivo antitumor activity against mouse B16 cells at 50 mg/kg for 1 to 9 days relative to control. It counts as functional.
The nature of assay [25]: In vivo antitumor activity against mouse CD8F1 cells at 2000 mg/kg on day 24 relative to control. It counts as functional.
The nature of assay [26]: In vivo antitumor activity against mouse CD8F1 cells at 1000 mg/kg administered on day 24 relative to control. It counts as functional.
Assay [27] in a line: In vivo antitumor activity against mouse CD8F1 cells at 500 mg/kg administered on day 24 relative to control. It counts as functional.
Assay [28] in a line: In vivo antitumor activity against mouse CD8F1 cells at 250 mg/kg administered on day 24 relative to control. It counts as functional.
Assay [29] in a line: In vivo antitumor activity against mouse CD8F1 cells at 125 mg/kg administered on day 24 relative to control. The format is functional.
The test system of assay [30] is CX-1. Kind of assay: In vivo antitumor activity against human CX-1 cells at 600 mg/kg administered on day 1, 5, 9 and 13 relative to control. The format is functional.
Assay [31] has as its system CX-1. Kind of assay: In vivo antitumor activity against human CX-1 cells at 300 mg/kg administered on day 1, 5, 9 and 13 relative to control. It counts as functional.
The subject of assay [32] is CX-1. Kind of assay: In vivo antitumor activity against human CX-1 cells at 150 mg/kg administered on day 1, 5,9 and 13 relative to control. The format is functional.
For assay [33], the system named is CX-1. Briefly: In vivo antitumor activity against human CX-1 cells at 75 mg/kg administered on day 1, 5,9 and 13 relative to control. The format is functional.
Assay [34] relates to Colon 26. Kind of assay: In vivo antitumor activity against mouse Colon 26 cells at 320 mg/kg administered on day 1, 5 and 9 relative to control. It counts as functional.
Assay [35] concerns Colon 26. Kind of assay: In vivo antitumor activity against mouse Colon 26 cells at 160 mg/kg administered on day 1, 5 and 9 relative to control. It counts as functional.
Assay [36] concerns Colon 26. Kind of assay: In vivo antitumor activity against mouse Colon 26 cells at 80 mg/kg administered on day 1, 5 and 9 relative to control. The format is functional.
The subject of assay [37] is Colon 26. Briefly: In vivo antitumor activity against mouse Colon 26 cells at 40 mg/kg administered on day 1, 5 and 9 relative to control. It counts as functional.
For assay [38], the system named is MC-38. Briefly: In vivo antitumor activity against mouse Colon 38 cells at 200 mg/kg administered on day 2 and 9 relative to control. The format is functional.
For assay [39], the system named is MC-38. Kind of assay: In vivo antitumor activity against mouse Colon 38 cells at 100 mg/kg administered on day 2 and 9 relative to control. It counts as functional.
In assay [40] the test system is MC-38. Kind of assay: In vivo antitumor activity against mouse Colon 38 cells at 50 mg/kg administered on day 2 and 9 relative to control. It counts as functional.
Assay [41] concerns L1210. Kind of assay: In vivo antitumor activity against mouse L1210 cells at 320 mg/kg administered on day 1 and 9 relative to control. It counts as functional.
Assay [42] concerns L1210. Kind of assay: In vivo antitumor activity against mouse L1210 cells at 160 mg/kg administered on day 1 and 9 relative to control. It counts as functional.
Assay [43] deals with L1210. Kind of assay: In vivo antitumor activity against mouse L1210 cells at 80 mg/kg administered on day 1 and 9 relative to control. It counts as functional.
The test system of assay [44] is L1210. Briefly: In vivo antitumor activity against mouse L1210 cells at 40 mg/kg administered on day 1 and 9 relative to control. The format is functional.
Assay [45] concerns L1210. Briefly: In vivo antitumor activity against mouse L1210 cells at 320 mg/kg administered on day 1, 5 and 9 relative to control. It counts as functional.
Assay [46] relates to L1210. Kind of assay: In vivo antitumor activity against mouse L1210 cells at 160 mg/kg administered on day 1, 5 and 9 relative to control. It counts as functional.
Assay [47] relates to L1210. Kind of assay: In vivo antitumor activity against mouse L1210 cells at 80 mg/kg administered on day 1, 5 and 9 relative to control. The format is functional.
Assay [48] deals with L1210. Kind of assay: In vivo antitumor activity against mouse L1210 cells at 40 mg/kg administered on day 1, 5 and 9 relative to control. The format is functional.
Assay [49] relates to Lewis lung carcinoma cell line. Briefly: In vivo antitumor activity against mouse LLC cells at 200 mg/kg for 1 to 9 days relative to control. The format is functional.
Assay [50] has as its system Lewis lung carcinoma cell line. Briefly: In vivo antitumor activity against mouse LLC cells at 100 mg/kg for 1 to 9 days relative to control. It counts as functional.
Assay [51] concerns Lewis lung carcinoma cell line. Kind of assay: In vivo antitumor activity against mouse LLC cells at 50 mg/kg for 1 to 9 days relative to control. The format is functional.
Assay [52] has as its system Lewis lung carcinoma cell line. Kind of assay: In vivo antitumor activity against mouse LLC cells at 25 mg/kg for 1 to 9 days relative to control. It counts as functional.
The test system of assay [53] is LX-1. Kind of assay: In vivo antitumor activity against human LX1 cells at 2400 mg/kg administered on day 1, 5 and 9 relative to control. The format is functional.
For assay [54], the system named is P388. Briefly: Cytotoxicity against mouse P388 cells at 25 ug/ml after 48 hrs. It counts as functional, cell-based.

With `COc1cc2c(ccc3c4cc(OC)c(OC)cc4cnc23)cc1O`, the outcome in the assay on KB [1] was inactive. Besides, the EC50 with P388 [2] turned out to be 36.5 µg/mL (≈ 109 µM).

For the molecule `COc1cc2c(ccc3c4cc(OC)c(OC)cc4c[n+](C)c23)cc1O.[Cl-]` [FAGARONINE], the T/C in the assay on LX-1 [3] stood at 46%; in the assay with LX-1 [4], 79%; in the assay on LX-1 [5], 107%; in the assay with MX1 [6], 68%; in the assay with MX1 [7], 79%; in the assay with MX1 [8], 74%. Besides, the T/C in the assay on MX1 [9] worked out at 83%; in the assay with P388 [10], 205%; with P388 [11] it was 270%; in the assay on P388 [12], 210%; in the assay on P388 [13], 190%; in the assay with P388 [14], 265%. Further, the T/C amounted to 210% in the assay with P388 [15]; 90% in the assay with P388 [16]; 270% with P388 [17]; 215% in the assay with P388 [18]; 180% with P388 [19]; 190% in the assay with P388 [20]. Further, the T/C in the assay with B16 [22] is given as 100%; in the assay with B16 [23], 97%; in the assay with B16 [24] it was 108%; in [25], 121%; in assay [26], 89%; in assay [27] it was 134%. Besides, the T/C was determined as 190% in assay [28]; 137% in assay [29]; 75% with CX-1 [30]; 51% with CX-1 [31]; 42% in the assay on CX-1 [32]; 49% in the assay on CX-1 [33]. For the same molecule, the T/C with Colon 26 [34] was determined as 138%; in the assay with Colon 26 [35], 120%; in the assay with Colon 26 [36] it was 121%; in the assay on Colon 26 [37], 117%; in the assay on MC-38 [38] it was 81%; with MC-38 [39], 89%. Also, the T/C came to 139% with MC-38 [40]; 161% in the assay with L1210 [41]; 145% with L1210 [42]; 159% in the assay with L1210 [43]; 137% in the assay with L1210 [44]; 137% in the assay with L1210 [45]. For the same molecule, the T/C in the assay with L1210 [46] is on record as 136%; in the assay on L1210 [47], 145%; in the assay on L1210 [48], 143%; in assay [49], 134%; in assay [50], 125%; in assay [51], 113%. Besides, the figures for the T/C (in assay [52]; with LX-1 [53]) were 111% and 65%, respectively. The EC50 in the assay with KB [21] is 0.57 µg/mL; in the assay on P388 [2], 0.18 µg/mL.

Turning to `COc1cc2cnc3c4cc(OC)c(OC(C)=O)cc4ccc3c2cc1OC`, the result with KB [1] and with P388 [54] was inactive.

With `COc1cc2cnc3c4cc(OC)c(OC)cc4ccc3c2cc1OC`, the result in the assay with KB [1] and in the assay with P388 [54] was inactive.

`COc1cc2c(cnc3c4cc(OC)c(O)cc4ccc23)cc1O`: the EC50 in the assay on KB [21] turned out to be 22.4 µg/mL (≈ 69.7 µM); in the assay with P388 [2], 13 µg/mL (≈ 40.5 µM).

As to `COc1cc2c(cnc3c4cc(OC)c(OC(C)=O)cc4ccc23)cc1OC(C)=O`, the EC50 in the assay with KB [21] was determined as 50 µg/mL (≈ 123 µM); with P388 [2], 12.5 µg/mL (≈ 30.8 µM).

Source of the values: ChEMBL document CHEMBL1151613, “Potential anticancer agents XXXI. N-demethylation of fagaronine” (1984).
